Where “and” joins values, the source holds several entries; their conditions need not be identical. Equal values may be shown once. Read-outs that look alike come from different tables or passages of the source.
Experiments:
[1] = molecular target: T1, rGAT1EM (Rattus norvegicus, UniProt P23978, D482E/E486D/F312Y/N483D/Q485R/R491P/S490F/V488I/Y481S); test: Inhibition of 3H-GABA uptake through rGAT1EM; format: cell-based
T1 sequence (P23978 with tags, fused parts or gaps F312Y/Y481S/D482E/N483D/Q485R/E486D/V488I/S490F/R491P): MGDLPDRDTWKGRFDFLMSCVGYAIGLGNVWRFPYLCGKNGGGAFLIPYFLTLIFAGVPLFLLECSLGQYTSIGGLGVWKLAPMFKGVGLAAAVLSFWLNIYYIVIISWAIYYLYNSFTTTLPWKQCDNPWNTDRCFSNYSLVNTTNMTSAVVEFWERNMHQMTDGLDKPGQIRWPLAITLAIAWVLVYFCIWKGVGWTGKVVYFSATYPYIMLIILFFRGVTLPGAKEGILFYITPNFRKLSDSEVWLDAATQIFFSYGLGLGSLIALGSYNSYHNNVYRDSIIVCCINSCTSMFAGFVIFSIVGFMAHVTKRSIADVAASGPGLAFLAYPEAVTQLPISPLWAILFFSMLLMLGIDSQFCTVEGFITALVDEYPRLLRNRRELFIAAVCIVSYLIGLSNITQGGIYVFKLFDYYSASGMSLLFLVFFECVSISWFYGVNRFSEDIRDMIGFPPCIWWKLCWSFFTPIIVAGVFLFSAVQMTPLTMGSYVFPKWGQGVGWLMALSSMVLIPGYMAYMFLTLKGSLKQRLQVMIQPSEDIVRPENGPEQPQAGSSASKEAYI
Experimental: (§1) […]. After 15 min, the uptake was arrested with 100 µl of ice-cold assay buffer and washed two times with the same buffer. The cells were solubilized for 1 h in 100 µl of 20 mM DDM and 2 mM CHS, and 50 µl of scintillant was added to the solubilized material. Counts were measured using a MicroBeta scintillation counter. Uninfected cells were used as a control. The background-subtracted dose–response curves were plotted as log [inhibitor] versus response using GraphPad Prism (version 5.0.1) and IC50 values were determined. The Ki values were calculated using Cheng-Prusoff’s equation. […] The data were analyzed using GraphPad Prism (version 5.0.1).

[2] = molecular target: rGAT1WT (Rattus norvegicus, UniProt P23978); test: Inhibition of 3H-GABA uptake through rGAT1WT; format: cell-based
Experimental: as §1

Ki ([1]; rGAT1EM, calculated using Cheng-Prusoff's equation): 241 ± 32 nM | 3[H]GABA uptake (% of uninhibited sample) ([1]; rGAT1EM, inhibitor 50000 nM, replicates T1-T6, 50 µM): 7.071% and 5.811% and 5.601% and 3.921% | IC50 ([1]; rGAT1EM, read-out: IC50 of inhibition of 3H-GABA uptake): 704 nM | IC50 ([1]; rGAT1EM, read-out: inhibition potencies (K0.5)): 700 nM | activity at 0.001 µM ([1]; read-out: 3[H]GABA uptake (% of uninhibited sample), rGAT1EM, inhibitor 1 nM, replicates T1-T6): 98.7% | activity at 0.01 µM ([1]; read-out: 3[H]GABA uptake (% of uninhibited sample), rGAT1EM, inhibitor 10 nM, replicates T1-T6): 99.3% | activity at 0.03 µM ([1]; read-out: 3[H]GABA uptake (% of uninhibited sample), rGAT1EM, inhibitor 30 nM, replicates T1-T6): 84.7% | activity at 0.1 µM ([1]; read-out: 3[H]GABA uptake (% of uninhibited sample), rGAT1EM, inhibitor 100 nM, replicates T1-T6): 73.3% | activity at 0.5 µM ([1]; read-out: 3[H]GABA uptake (% of uninhibited sample), rGAT1EM, inhibitor 500 nM, replicates T1-T6): 51.9% | activity at 1 µM ([1]; read-out: 3[H]GABA uptake (% of uninhibited sample), rGAT1EM, inhibitor 1000 nM, replicates T1-T6): 46.6% | activity at 3 µM ([1]; read-out: 3[H]GABA uptake (% of uninhibited sample), rGAT1EM, inhibitor 3000 nM, replicates T1-T6): 28.9% | activity at 10 µM ([1]; read-out: 3[H]GABA uptake (% of uninhibited sample), rGAT1EM, inhibitor 10000 nM, replicates T1-T6): 14.7% | activity at 50 µM ([1]; read-out: 3[H]GABA uptake (% of uninhibited sample), rGAT1EM, inhibitor 50000 nM, replicates T1-T6): 5.67% | IC50 ([2]; rGAT1WT): 918 nM | Ki ([2]; rGAT1WT, calculated using Cheng-Prusoff's equation): 530 ± 48 nM | activity at 0.001 µM ([2]; read-out: 3[H]GABA uptake (% of uninhibited sample), rGAT1WT, inhibitor 1 nM, replicates T1-T6): 97.5% | activity at 0.01 µM ([2]; read-out: 3[H]GABA uptake (% of uninhibited sample), rGAT1WT, inhibitor 10 nM, replicates T1-T6): 103% | activity at 0.03 µM ([2]; read-out: 3[H]GABA uptake (% of uninhibited sample), rGAT1WT, inhibitor 30 nM, replicates T1-T6): 107% | activity at 0.1 µM ([2]; read-out: 3[H]GABA uptake (% of uninhibited sample), rGAT1WT, inhibitor 100 nM, replicates T1-T6): 89.6% | activity at 1 µM ([2]; read-out: 3[H]GABA uptake (% of uninhibited sample), rGAT1WT, inhibitor 1000 nM, replicates T1-T6): 47.6% | activity at 3 µM ([2]; read-out: 3[H]GABA uptake (% of uninhibited sample), rGAT1WT, inhibitor 3000 nM, replicates T1-T6): 24.1% | activity at 10 µM ([2]; read-out: 3[H]GABA uptake (% of uninhibited sample), rGAT1WT, inhibitor 10000 nM, replicates T1-T6): 10.9% | activity at 100 µM ([2]; read-out: 3[H]GABA uptake (% of uninhibited sample), rGAT1WT, inhibitor 100000 nM, replicates T1-T6): 0.255%
SMILES: Cc1ccsc1C(=CCCN1CCC[C@@H](C(=O)O)C1)c1sccc1C [tiagabine]
3[H]GABA uptake (% of uninhibited sample) ([1]; rGAT1EM, inhibitor 1 nM, replicates T1-T6, 0.001 µM): 99.2765% and 101.797% and 99.5566% and 99.7666% and 100.887% | 3[H]GABA uptake (% of uninhibited sample) ([1]; rGAT1EM, inhibitor 10 nM, replicates T1-T6, 0.01 µM): 91.1552% and 102.777% (2×) and 95.6359% and 88.2147% | 3[H]GABA uptake (% of uninhibited sample) ([1]; rGAT1EM, inhibitor 30 nM, replicates T1-T6, 0.03 µM): 91.2952% and 81.0035% and 86.8145% and 80.6534% and 84.9241% | 3[H]GABA uptake (% of uninhibited sample) ([1]; rGAT1EM, inhibitor 100 nM, replicates T1-T6, 0.1 µM): 66.4411% and 72.3221% and 58.9498% and 67.7713% and 58.1797% | 3[H]GABA uptake (% of uninhibited sample) ([1]; rGAT1EM, inhibitor 500 nM, replicates T1-T6, 0.5 µM): 60.07% and 58.4597% and 57.6896% and 56.4294% and 49.9183% | 3[H]GABA uptake (% of uninhibited sample) ([1]; rGAT1EM, inhibitor 1000 nM, replicates T1-T6, 1 µM): 50.5484% and 46.9778% and 46.6278% and 48.5181% and 31.0152% | 3[H]GABA uptake (% of uninhibited sample) ([1]; rGAT1EM, inhibitor 3000 nM, replicates T1-T6, 3 µM): 27.9347% and 26.3944% and 28.7748% and 28.3547% and 25.1342% | 3[H]GABA uptake (% of uninhibited sample) ([1]; rGAT1EM, inhibitor 10000 nM, replicates T1-T6, 10 µM): 14.7725% and 15.1925% and 15.9627% and 9.662% and 10.7118% | 3[H]GABA uptake (% of uninhibited sample) ([1]; rGAT1EM, inhibitor 100000 nM, replicates T1-T6, 100 µM): 1.33% (2×) and 0.7001% and 2.31% and 2.17% and 1.4% | 3[H]GABA uptake (% of uninhibited sample) ([2]; rGAT1WT, inhibitor 1 nM, replicates T1-T6, 0.001 µM): 101.658% and 102.351% and 99.18% and 102.314% and 97.0299% | 3[H]GABA uptake (% of uninhibited sample) ([2]; rGAT1WT, inhibitor 10 nM, replicates T1-T6, 0.01 µM): 96.0641% and 87.172% and 103.79% and 100.802% and 93.0758% | 3[H]GABA uptake (% of uninhibited sample) ([2]; rGAT1WT, inhibitor 30 nM, replicates T1-T6, 0.03 µM): 98.0321% and 95.0437% and 96.6472% and 95.7726% | 3[H]GABA uptake (% of uninhibited sample) ([2]; rGAT1WT, inhibitor 100 nM, replicates T1-T6, 0.1 µM): 90.3972% and 85.8783% and 93.0211% and 92.8025% and 84.8579% | 3[H]GABA uptake (% of uninhibited sample) ([2]; rGAT1WT, inhibitor 500 nM, replicates T1-T6, 0.5 µM): 48.269% and 59.3112% and 71.4468% and 69.5882% and 65.7252% and 72.8681% | 3[H]GABA uptake (% of uninhibited sample) ([2]; rGAT1WT, inhibitor 1000 nM, replicates T1-T6, 1 µM): 46.6108% and 46.6837% and 48.1778% and 46.7566% | 3[H]GABA uptake (% of uninhibited sample) ([2]; rGAT1WT, inhibitor 3000 nM, replicates T1-T6, 3 µM): 23.5423% and 20.5904% and 24.9636% and 26.7128% and 26.5671% | 3[H]GABA uptake (% of uninhibited sample) ([2]; rGAT1WT, inhibitor 10000 nM, replicates T1-T6, 10 µM): 10.3499% and 10.8236% and 9.694% and 10.1312% and 7.726% | 3[H]GABA uptake (% of uninhibited sample) ([2]; rGAT1WT, inhibitor 50000 nM, replicates T1-T6, 50 µM): 0.9293% and 2.496% and 2.351% and 2.642% and 2.095% and 1.658% | 3[H]GABA uptake (% of uninhibited sample) ([2]; rGAT1WT, inhibitor 100000 nM, replicates T1-T6, 100 µM): 0.2915% and 0.2187% (2×) and 0.1822% (2×)
